The values that follow come from US20120270300A1, “PRODUCTION OF RECOMBINANT FACTOR IX IN A HUMAN HEPATOCYTE CELL LINE” (Universite Claude Bernard Lyon I, priority 2009, published 2012).

Where two headings read alike, the source gives them in different places.

Series [1] concerns Huh7 cells transiently transfected with pcDNAFIXwt. In words: Effects of protein degradation inhibitors on the intracellular level of FIXwt (ELISA on lysates). Format: cell-based, human. Conditions: for Intracellular FIX level (mean ± SE): 6 h treatment, 36 h after transfection, % relative to nontreated cell lysates, NH4Cl 50 mM/l, beta-lactone 10 μM/l, brefeldin A 10 μg/ml. On the procedure:
Huh7 cells (1×10^6 cells/dish) were transiently transfected at 80% confluence in 60 mm culture dishes. Thirty-six hours after transfection, the cells were incubated in FBS-free medium containing 10 μM/l of clasto-lactacystin β-lactone (Calbiochem, France Biochem, Meudon, France), 50 mM/l of ammonium chloride, or 10 μg/ml of brefeldin A (Sigma Aldrich). The medium was renewed every 2 hours.
The cell lysates were harvested 6 h later and prepared in 120 μl of cold lysis buffer. The FIX antigen concentration was quantified on the lysates by means of an ELISA assay. The results are expressed as percentage of values obtained relative to the nontreated control lysates. The comparisons were carried out by application of Fisher's test using the Stat View® software.
Thirty-six hours after transfection, the inhibitors were added to the culture medium and left for 6 h. The intracellular FIX concentrations were measured after treatment by means of an ELISA assay (the values are expressed as % of FIX relative to the values obtained in the nontreated cell lysates). The results are brought together in table 1 below and correspond to three independent transfections.

The conditions of series [2]: hemophilia B patients, versus plasma FIX (Mononine); cited from earlier work.
The conditions of series [3]: versus plasma FIX (Mononine); cited from earlier work.
Series [4] relates to factor IX-deficient plasma. In words: Specific coagulation activity, one-step chronometric aPTT test, related back to Benefix (aPTT/ELISA). It is filed as biochemical. On the procedure: The term “biologically active FIX” is intended to mean a factor IX of which the specific coagulation activity is at least 100%. The recombinant FIX secreted into the culture medium of the present invention preferably has a specific coagulation activity of from 150 to 200%, preferably from 170 to 200%. The specific coagulation activity of the factor IX is determined by means of the technique termed chronometric time technique by measuring the partial thromboplastin time (PTT) or activated partial thromboplastin time (aPTT) which is a semi-overall test of blood coagulation which uses a coagulometer. The test used is detailed in the examples. In this test, Benefix® has a specific activity of 100%.
The specific coagulation activity of the factor IX is determined using the technique termed chronometric time technique by measuring the partial thromboplastin time (PTT) or activated partial thromboplastin time (aPTT) according to K. J. Smith et al., Blood, 72, 1269-1277 (1988), which is a semi-overall one-step blood coagulation test with an MDA II® or else Destiny Max coagulometer (Trinity Biotech, Dublin, Ireland). For this, fifty microliters of sample are diluted to 1/10th in imidazole buffer (Trinity Biotech, Bray, Ireland). […] The coagulation time is measured by means of a coagulometer using an MDA II® or else Destiny Max automated device (Trinity Biotech, Bray, Ireland). […]
For orientation: An ELISA detects its analyte on a solid surface through an enzyme-linked reagent.

Series [5] relates to factor IX-deficient plasma. Conditions: FIX from HepG2 cells with viral vectors, published by Chen et al.; cited from earlier work.
For series [6], the system named is factor IX-deficient plasma. In words: aPTT coagulation test under the conditions of Chen et al., related to standard plasma values, converted into ng/ml. Format: biochemical. Conditions: Huh7-CD4 clone. How it is done:
A comparative study with respect to the works of Chen et al., 1997, was carried out. In these experiments, 1×10^6 cells of the Huh7-CD4 clone were seeded into 6-well plates. The following day, the medium was renewed and left in the presence of the producer cells for 24 hours. The FIX concentrations in this medium are determined using the Asserachrom IX:Ag ELISA kit (Diagnostica Stago). The activity of the FIX secreted into this medium is determined in a one-step coagulation test (aPTT) with an MDA II or else Destiny Max coagulometer (Trinity Biotech, Dublin, Ireland) as described above. The activity of the factor IX is determined from standard plasma values (Standard Human Plasma, Siemens Marburg, Germany, calibrated against a WHO—World Health Organization—standard) by means of a log-log curve. […] The specific activity of the FIX resulting from the Huh7-CD4 clone is calculated according to the ratio between the coagulant activity read for the sample, related back to the standard plasma values, and its FIX concentration (aPTT/ELISA).
Moreover, the specific activity of the FIX produced by the Huh7-CD4 line was determined according to the conditions determined by Chen et al. The ratio between the concentrations measured by the aPTT method (ng/ml) and measured by ELISA (ng/ml) was calculated on the basis of five different assays. […]

As to `CC(C)[C@H](O)[C@@]12NC(=O)[C@H](C)[C@@H]1OC2=O` [Beta-lactone, clasto-lactacystin β-lactone], the “Intracellular FIX level (mean ± SE)” value is 50.1% +/− 25.8 in series [1] and “no significant effect” in series [1] (listed as clasto-lactacystin β-lactone).
On to `C[C@H]1CCC/C=C/[C@@H]2C[C@H](O)C[C@H]2[C@H](O)/C=C/C(=O)O1` [Brefeldin A, brefeldin A], for which the “Intracellular FIX level (mean ± SE)” value in series [1] amounted to 254.4% +/− 21.4. Besides, the “increase of intracellular FIXwt level compared with that without inhibitor” value in series [1] (after incubation with brefeldin A, p=0.005) turned out to be 370%.
With “Benefix: marketed recombinant FIX (Wyeth) synthesized by CHO cells stably transfected with the FIX cDNA”, the “half-life in the blood stream compared with plasma FIX” value in series [2] is recorded as “similar”. In series [3], the “specific activity compared with FIX of plasma origin” value is reported as “equivalent”. Further, the “specific activity relative to that of Benefix” value in series [4] (culture supernatants of transiently transfected Huh7 cells, 36 h after transfection, Benefix = 100%) is recorded as 100%.
“FIX/GCF9SN-MPSV: FIX produced with a viral vector in the HepG2 hepatocyte cell line by Chen et al., 1997”: in series [5], the “% specific activity aPTT/ELISA” value was 73.5 +/− 19.7% and the aPTT was 55 ± 15 ng/mL.
In the case of “FIX/GCNCF9: FIX produced with a viral vector in the HepG2 hepatocyte cell line by Chen et al., 1997”, in series [5], the “% specific activity aPTT/ELISA” value is on record as 93.7 +/− 11% and the aPTT is 120 ± 14 ng/mL.
Regarding “FIXwt: recombinant human factor IX expressed in the human hepatocyte cell line Huh7 (transient, or stable clone Huh7-CD4) and secreted into the supernatant”, the “specific activity improved by a factor” value in series [4] (transiently transfected Huh7 cells, versus Benefix) is on record as 1.7. In series [6] (24 hours/10^6 cells, 5 μg/ml of FIX = 100%), this molecule gave an aPTT of 740 ± 59 ng/mL. The “% specific activity aPTT/ELISA” value in series [6] (related to standard plasma, five assays) was 161 +/− 37%.
